According to patent publication US20090075972A1, “Use of Midostaurin for Treating Gastrointestinal Stromal Tumors” (priority 2004, published 2009):
Like-named read-outs stand apart in the source and are kept apart here.

Experiments:
[1] = tested on: T674 I mutant form of FIPL1-PDGFRA; details: refractory CEL patients; Cools J. et al., Cancer Cell 2003; cited from earlier work
[2] = target: T1, PDGFRA D842V (Homo sapiens, UniProt P16234, D842V); test: Dose response curves of Ba/F3 cells expressing mutant kinase (viable cells after 24 hrs); assay type: cell-based
T1 construct: expressed in transfected cells; host or cells: Ba/F3 murine cells, retroviral transduction with pMSCV-puro
Procedure: (§1) Construct: Mutant PDGFRA and KIT cDNA are obtained by RT-PCR on RNA isolated from progressive tumors. The cDNA's are cloned into the retroviral vector pMSCV-puro (Clontech).
(§2) Cell culture: 293T cells are grown in DMEM supplemented with 10% FCS. Ba/F3 cells are grown in RPMI-1640 supplemented with 10% FCS and interleukin-3 (1 ng/ml). Virus as produced as described previously, see e.g. Cools J. et al., N Engl J Med 2003; 348:1201-1214.
(§3) .Ba/F3 cells transduced with the different constructs are selected with puromycin (2 μg/ml). To test for factor independent growth, Ba/F3 cells are washed 3 times in PBS and new cultures are initiated in the absence of interleukin-3. Cells that became independent on interleukin-3, are maintained in the absence of interleukin-3. For dose-response curves, Ba/F3 cells are grown in 24-well plates with different concentrations of inhibitor. The number of viable cells is determined at the start and after 24 hrs, using the AqueousOne solution (Promega).
(§4) Ba/F3 cells are IL3 dependent for their growth, but become IL3 independent upon the expression of many activated kinases, such as FIP1 L1-PDGFRA and BCR-ABL. […] The PDGFRA ΔDIM842-844 mutant serve as a control in this experiment.

[3] = target: T2, PDGFRA ΔDIM842-844 (Homo sapiens, UniProt P16234, DEL842-844); test: as above; assay type: cell-based
T2 construct: expressed in transfected cells; host or cells: Ba/F3 murine cells, retroviral transduction with pMSCV-puro
Procedure: as §1, §2, §3, §4

[4] = target: KITInsAY502-503/V654A (Homo sapiens, UniProt P10721, INS503AY/V654A); details: KITIns503AY/V654A cells
Procedure: (§5) Western-blot: Snap-frozen tumor specimens sufficient for preparation of cell lysates were available from ten refractory GISTs. Cell lysis, SDS-PAGE and immunoblotting were carried out as described.^21 Membranes (Amnersham Pharmacia Biotechnology, UK) were immunoblotted overnight using anti-phospho-KIT (Y703) (Zymed, San Francisco, Calif.) antibody at dilution of 1:500. The HRP-conjugated anti-rabbit IgG was used at a dilution of 1:2500 and visualized with Enhanced Chemiluminescence (Pierce). Membranes were then stripped and re-blotted to determine total protein levels using an antibody recognizing total KIT protein (anti-CD117, A4502, DAKO, Glostrup, Denmark).
(§6) Experiments are performed with serial dilutions of the 10 mM stock. Controls are performed with solvent (DMSO) dilutions. Primary cells are obtained from collagenase disaggregated progressive tumor specimens, seeded at 60-70% confluence in 100-mm cell culture dishes (Corning Inc., Corning, N.Y.) and grown for three days in DMEM supplemented with 10% fetal bovine serum, 0.1 mM nonessential amino acids, and 1.0 mM sodium pyruvate.
(§7) The results are compared with GIST882 cells, which carry a hemizygous KIT K642E mutation. Observations are standardized for total KIT expression using anti-KIT antibody.

[5] = target: T3, KITΔ557-558/T670I (Homo sapiens, UniProt P10721, DEL557-558/T670I); details: 90 min, KITΔ557-558/T670I cells
Procedure: as §5, §6, §7

[6] = target: T3, KITΔ557-558/T670I; details: Ba/F3 cells
Procedure: as §1, §2, §3, §4

[7] = human trials; cited from earlier work
[8] = tested on: GISTs; details: one reported study; cited from earlier work

| SMILES | inhibitory activity against imatinib-resistant T674I FIPL1-PDGFRA [1] | inhibition of PDGFRA D842V mutant ([2]; 1 μM) | concentration at which mutant is inhibited ([2]; PDGFRA D842V) | concentration at which mutant is inhibited [3] | KIT autophosphorylation ([4]; 0.5 μM, 90 min) | KIT autophosphorylation ([4]; ten-fold higher concentration than 0.5 μM) | KIT autophosphorylation ([5]; 0.5 μM) | KIT autophosphorylation ([5]; 1 μM) | concentration at which mutant is inhibited [6] | Maximum Tolerated Dose (MTD), total dose [7] | patients with primary resistance to imatinib [8] |
| --- | --- | --- | --- | --- | --- | --- | --- | --- | --- | --- | --- |
| CO[C@@H]1[C@H](N(C)C(=O)c2ccccc2)C[C@H]2O[C@]1(C)n1c3ccccc3c3c4c(c5c6ccccc6n2c5c31)C(=O)NC4 [PKC412, N-[(9S,10R,11R,13R)-2,3,10,11,12,13-hexahydro-10-methoxy-9-methyl-1-oxo-9,13-epoxy-1H,9H-diindolo[1,2,3-gh:3′,2′,1′-lm]pyrrolo[3,4-j][1,7]benzodiazonin-11-yl]-N-methylbenzamide] | full inhibitory activity | efficiently inhibits | below 1 μM | below 1 μM | reduced | completely inhibited | reduced | totally inhibit | below 1 μM | ~225 mg/day |  |
| Cc1ccc(NC(=O)c2ccc(CN3CCN(C)CC3)cc2)cc1Nc1nccc(-c2cccnc2)n1 [imatinib] |  |  |  |  |  |  |  |  |  |  | 13.7% |
